Assay [1] concerns the target AKT1 (Homo sapiens, UniProt P31749). Nature of the assay: SPR of SYN23-26 binding to AKT1. To be noted: read-out: estimated Kd with respect to AKT1.
The target in assay [2] is T1, transferrin (Homo sapiens, UniProt P02787). Nature of the assay: SPR of lysine-linked synbodies on immobilized transferrin, Kd from kinetics. In kind it is binding. To be noted: Kd determined from kinetics; read-out: Kd with respect to transferrin. The method, then: Transferrin 25 μg/ml in immobilization buffer selected for correct pH was then applied 302 at a flow rate of 5 to 10 μl/min for a contact time of about 5 to 10 minutes, allowing the amine functionality on the transferrin 308 to displace the activated NHS ester and bond to the surface via an amide bond. Finally, ethylene diamine (1-Methylene diamine-HCl at pH 8.5) was applied 304 at a flow rate of 5 to 10 μl/min for a contact time of about 6 to 7 minutes to deactivate any remaining reactive groups on the dextran chip surface. Flow rates and contact times are adjusted as necessary to provide the surface concentration of target desired for the intended application, and may vary by target. In general, for evaluating whether binding occurs, it is preferable to immobilize a relatively large quantity of target, and higher flow rates and/or longer contact times may be used. For determining kinetics, it is preferable to limit the amount of target immobilized so as to minimize rebinding and avidity effects, and lower flow rates and/or contact times may be used.
Candidate affinity elements for the transferrin synbody TRF19, TRF21, TRF23, TRF24, TRF25, and TRF26 were individually evaluated for solution phase KD with respect to transferrin by SPR analysis. […]

Assay [3] has as its system 8,000 human proteins (GST fusion). Nature of the assay: Invitrogen Protoarray Human Protein Microarray binding pattern (8,000 features). To be noted: fluorescence intensity on human protein microarray. As to the method: Two biotinylated anti-TRF synbodies (SYN23-26 and SYN 21-22) were applied to a protein microarray having 8,000 features (Invitrogen Protoarray Human Protein Microarray v. 4.0 for immune response biomarker profiling), each feature comprising a distinct human protein (GST fusion) adsorbed to a nitrocellulose coated slide. Application of the synbodies to the microarray was performed in accordance with manufacturer instructions: (see ProtoArray Human Protein Microarray, Invitrogen, Catalog no. PAH052401, Version B, 15 Dec. 2006, 25-0970, Users Manual.) After blocking the array with 1% BSA/PBS/0.1% Tween for 1 hour at 4C with gentle shaking, 120 μl of probing buffer (1×PBS, 5 mM mgC12, 0.5 mM DTT, 0.05% Triton X-100, 5% glycerol, 1% BSA) with synbody was applied to the array. The prescribed cover slip was placed over the array and adjusted to remove air bubbles. The array was incubated in a 50 ml conical tube, printed side up, for 1.5 hours at 4C without shaking. The array was then removed from the conical tube inserted diagonally into the array chamber, kept on ice. 8 ml probing buffer was added to the chamber wall. The cover slip was removed and the array was incubated in probing buffer for 1 minute on ice. […] The array was dried in the dark for 60 minutes at room temperature, after which it was scanned using a fluorescent microarray scanner and data was taken and analyzed.

In assay [4] the target is T1, transferrin. Briefly: SPR of SYN23-26 binding to transferrin. To be noted: read-out: estimated Kd with respect to transferrin.

Bridges are numbered along the chain shown (N, C = ends). Roman numbers before positions name the chains, in order. Where no end group is shown, it is not given here.

T1 sequence (P02787 20-698): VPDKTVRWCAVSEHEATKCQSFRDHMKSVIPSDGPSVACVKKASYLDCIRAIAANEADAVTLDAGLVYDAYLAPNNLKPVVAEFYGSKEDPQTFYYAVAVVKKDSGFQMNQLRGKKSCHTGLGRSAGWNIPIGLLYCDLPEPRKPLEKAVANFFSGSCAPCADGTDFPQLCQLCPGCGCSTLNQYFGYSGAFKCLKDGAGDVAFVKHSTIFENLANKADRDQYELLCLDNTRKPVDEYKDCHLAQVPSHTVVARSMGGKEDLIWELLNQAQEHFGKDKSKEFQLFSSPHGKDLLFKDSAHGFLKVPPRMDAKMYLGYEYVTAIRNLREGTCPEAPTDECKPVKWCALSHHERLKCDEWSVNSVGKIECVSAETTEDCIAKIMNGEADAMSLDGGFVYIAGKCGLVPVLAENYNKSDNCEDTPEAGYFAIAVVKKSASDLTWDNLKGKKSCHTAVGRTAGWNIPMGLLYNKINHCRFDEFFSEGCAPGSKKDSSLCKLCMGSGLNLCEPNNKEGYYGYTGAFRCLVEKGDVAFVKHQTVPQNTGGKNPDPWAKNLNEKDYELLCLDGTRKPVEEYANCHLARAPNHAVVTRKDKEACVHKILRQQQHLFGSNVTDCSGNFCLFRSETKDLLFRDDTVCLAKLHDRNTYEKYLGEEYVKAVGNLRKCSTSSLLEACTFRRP
AKT1, sequence (P31749 whole entry): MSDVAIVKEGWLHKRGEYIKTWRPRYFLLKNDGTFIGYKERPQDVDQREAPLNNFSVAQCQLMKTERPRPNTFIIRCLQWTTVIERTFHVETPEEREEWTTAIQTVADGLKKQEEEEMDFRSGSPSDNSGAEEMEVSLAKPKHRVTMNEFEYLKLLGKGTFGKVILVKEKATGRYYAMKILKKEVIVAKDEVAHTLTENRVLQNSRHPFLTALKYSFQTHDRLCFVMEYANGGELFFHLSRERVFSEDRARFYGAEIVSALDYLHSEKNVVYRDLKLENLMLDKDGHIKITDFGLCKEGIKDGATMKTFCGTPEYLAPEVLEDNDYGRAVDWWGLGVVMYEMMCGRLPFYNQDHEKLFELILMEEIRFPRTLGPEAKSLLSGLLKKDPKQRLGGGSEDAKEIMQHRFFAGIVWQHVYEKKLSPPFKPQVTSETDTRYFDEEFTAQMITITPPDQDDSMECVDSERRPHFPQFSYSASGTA

On to “I: AHKVVPQRQIRHAYNRYGSGKC / II: FRGWAHIFFGPHVIYRGGSG (amide I:21-II:C) [SYN23-26]”, for which the Kd in assay [1] was about 1 nM; in assay [2], 150 ± 50 nM; in assay [4], about 141 nM. Moreover, in assay [3], the “highest affinity target from a library of 8,000” value was “PCCA”.

Source of the values: US20120021967A1, “SYNTHETIC ANTIBODIES” (Arizona Board of Regents, A Body Corporate of the State Of …, priority 2008, published 2012).
